Results taken from ChEMBL document CHEMBL1129521, “Molecular modeling of azole antifungal agents active against Candida albicans. 1. A comparative molecular field analysis study” (1996).

Test system: Candida albicans
Assay: In vitro antimycotic activity of compound against Candida albicans was determined as -log MIC90 compound to that of -log MIC90 bifonazole
Assay type: functional

Structure (SMILES)	Ratio
COc1ccc(C(Cc2ccc(N)cc2)n2ccnc2)cc1 (stereo unspecified)	0.3
Fc1ccc(-n2ccc(C(c3ccc(Cl)cc3)n3ccnc3)c2)cc1 (stereo unspecified)	0.3
COc1ccc(C(Cc2ccc(Cl)cc2Cl)n2ccnc2)cc1 (stereo unspecified)	0.6
COc1ccc(C(Cc2ccc(Cl)cc2)n2cnnc2)cc1 (stereo unspecified)	1.8
COc1ccc(C(Cc2ccc([N+](=O)[O-])cc2)n2ccnc2)cc1 (stereo unspecified)	1.5
Cc1ccc(C(c2ccn(-c3ccccc3)c2)n2ccnc2)cc1 (stereo unspecified)	0
COc1ccc(C(Cc2ccccc2F)n2ccnc2)cc1 (stereo unspecified)	1.8
O=[N+]([O-])c1ccc(C(c2ccc(Cl)cc2)n2ccnc2)cc1 (stereo unspecified)	0
c1ccc(C(c2ccn(-c3ccccc3)c2)n2ccnc2)cc1 (stereo unspecified)	0.6
COc1ccc(-c2cn(Cc3ccc(Cl)cc3Cl)cc2C(c2ccccc2)n2ccnc2)cc1 (stereo unspecified)	1.8
CCC(c1ccc(Cl)cc1)C(c1ccc(OC)cc1)n1cncn1 (stereo unspecified)	1.5
COc1ccc(CC(c2ccc(OC)cc2)n2ccnc2)cc1 (stereo unspecified)	0.9
COc1ccc(C(Cc2ccc(Cl)cc2)n2ccnc2)cc1 (stereo unspecified)	0.6
COc1ccc(C(Cc2cccc(F)c2)n2ccnc2)cc1 (stereo unspecified)	1.8
Cn1cc(-c2ccccc2)c(C(c2ccc3ccccc3c2)n2ccnc2)c1 (stereo unspecified)	2.4
c1ccc(-c2c[nH]cc2C(c2cccc3ccccc23)n2ccnc2)cc1 (stereo unspecified)	0.9
Clc1ccc(-c2cn(Cc3ccc(Cl)cc3Cl)cc2C(c2ccccc2)n2ccnc2)cc1 (stereo unspecified)	1.8
CCC(c1ccc(Cl)cc1)C(c1ccc(OC)cc1)n1cnnc1 (stereo unspecified)	1.8
COc1ccc(C(Cc2ccc(F)cc2)n2ccnc2)cc1 (stereo unspecified)	1.2

Structure (SMILES)	Ratio
Cc1ccc(C(c2ccc(NC(=O)c3ccc(Cl)cc3Cl)cc2)n2ccnc2)cc1 (stereo unspecified)	0
COc1ccc(C(Cc2cccc(Cl)c2)n2ccnc2)cc1 (stereo unspecified)	1.5
Cc1ccc(-c2cn(C)cc2C(c2ccccc2)n2ccnc2)cc1 (stereo unspecified)	0.6
COc1ccc(C(C(Cc2ccc(Cl)cc2Cl)c2ccc(Cl)cc2)n2cncn2)cc1 (stereo unspecified)	1.8
Fc1ccc(-c2c[nH]cc2C(c2ccccc2)n2ccnc2)cc1 (stereo unspecified)	0
COc1ccc(C(Cc2cccc(-n3cccc3)c2)n2ccnc2)cc1 (stereo unspecified)	1.8
Cn1cc(-c2ccc(F)cc2)c(C(c2ccccc2)n2ccnc2)c1 (stereo unspecified)	0.6
Cc1ccc(C(c2ccn(-c3ccc(F)cc3)c2)n2ccnc2)cc1 (stereo unspecified)	0.3
Cc1ccc(C(c2ccc(-n3cccc3)cc2)n2ccnc2)cc1 (stereo unspecified)	0.9
COc1ccc(C(Cc2ccc(Cl)cc2)n2cncn2)cc1 (stereo unspecified)	1.5
COc1ccc(C(Cc2ccccc2Cl)n2ccnc2)cc1 (stereo unspecified)	1.8
Cn1cc(-c2ccccc2)c(C(c2cccc3ccccc23)n2ccnc2)c1 (stereo unspecified)	1.5
CCC(c1ccc([N+](=O)[O-])cc1)C(c1ccc(OC)cc1)n1ccnc1 (stereo unspecified)	0.9
Cn1cc(-c2ccccc2)c(C(c2ccccc2)n2ccnc2)c1 (stereo unspecified)	0.6
COc1ccc(C(Cc2ccccc2[N+](=O)[O-])n2ccnc2)cc1 (stereo unspecified)	2.1
COc1ccc(C(Cc2ccccc2-n2cccc2)n2ccnc2)cc1 (stereo unspecified)	0.9
O=[N+]([O-])c1ccc(C(c2ccccc2)n2ccnc2)cc1 (stereo unspecified)	0.3
COc1ccc(C(C(Cc2ccc(Cl)cc2Cl)c2ccc(Cl)cc2)n2ccnc2)cc1 (stereo unspecified)	1.2
COc1ccc(C(Cc2ccc(Cl)cc2Cl)C(c2ccc(OC)cc2)n2ccnc2)cc1 (stereo unspecified)	1.5

Structure (SMILES)	Ratio
Fc1ccc(C(c2ccn(-c3ccc(F)cc3)c2)n2ccnc2)cc1 (stereo unspecified)	0
Cn1cc(-c2ccc(Cl)cc2)c(C(c2ccccc2)n2ccnc2)c1 (stereo unspecified)	0
Clc1ccc(Cn2cc(-c3ccccc3)c(C(c3ccccc3)n3ccnc3)c2)c(Cl)c1 (stereo unspecified)	1.5
Cc1ccc(C(c2ccc([N+](=O)[O-])cc2)n2ccnc2)cc1 (stereo unspecified)	0.3
Fc1ccc(-n2ccc(C(c3ccccc3)n3ccnc3)c2)cc1 (stereo unspecified)	0.6
c1ccc(-c2c[nH]cc2C(c2ccc3ccccc3c2)n2ccnc2)cc1 (stereo unspecified)	0.9
Clc1ccc(-n2ccc(C(c3ccccc3)n3ccnc3)c2)cc1 (stereo unspecified)	0.3
Cc1ccc(C(c2ccn(-c3ccc(Cl)cc3)c2)n2ccnc2)cc1 (stereo unspecified)	0
COc1ccc(CC(c2ccc(OC)cc2)n2cnnc2)cc1 (stereo unspecified)	1.8
c1ccc(C(c2ccc(-n3cccc3)cc2)n2ccnc2)cc1 (stereo unspecified)	0.6
Clc1ccc(C(c2ccc(-n3cccc3)cc2)n2ccnc2)cc1 (stereo unspecified)	0.3
Cc1ccc(-c2cn(Cc3ccc(Cl)cc3Cl)cc2C(c2ccccc2)n2ccnc2)cc1 (stereo unspecified)	1.8
Nc1ccc(C(c2ccccc2)n2ccnc2)cc1 (stereo unspecified)	0.3
Fc1ccc(C(c2ccn(-c3ccc(Cl)cc3)c2)n2ccnc2)cc1 (stereo unspecified)	0.3
Fc1ccc(C(c2ccn(-c3ccccc3)c2)n2ccnc2)cc1 (stereo unspecified)	0.3
Clc1ccc(C(c2ccn(-c3ccc(Cl)cc3)c2)n2ccnc2)cc1 (stereo unspecified)	0.6
Clc1ccc(-c2c[nH]cc2C(c2ccccc2)n2ccnc2)cc1 (stereo unspecified)	0.3
c1ccc(-c2ccc(C(c3ccccc3)n3ccnc3)cc2)cc1 (stereo unspecified) [BIFONAZOLE]	0
